For 10 molecules, MIC results are on record in ChEMBL document CHEMBL1142078, “Detection of a new SHV-type extended-spectrum beta-lactamase, SHV-31, in a Klebsiella pneumoniae strain causing a large nosocomial outbreak in The Netherlands” (2007).

Type in all cases: functional
The test system of assay [1] is Escherichia coli. The assay is described as follows: Antimicrobial activity against Escherichia coli XL10/pSHV-31.
For assay [2], the system named is Klebsiella pneumoniae. The experiment in a line: Antimicrobial activity against Klebsiella pneumoniae KPN15-NL.
The test system of assay [3] is Escherichia coli. The experiment in a line: Antimicrobial activity against Escherichia coli XL10/vector.

Values after ≈ are worked out from the molar mass of the structure shown. Some results are limits rather than exact numbers.

Take `CO[C@@]1(NC(=O)Cc2cccs2)C(=O)N2C(C(=O)O)=C(COC(N)=O)CS[C@@H]21` [CEFOXITIN]: the values for the MIC in assay [1], in assay [2] and in assay [3] were 1 µg/mL (≈ 2.34 µM), 16 µg/mL (≈ 37.4 µM) and 1 µg/mL (≈ 2.34 µM), respectively.

For `CC1(C)S[C@@H]2[C@H](NC(=O)[C@H](N)c3ccccc3)C(=O)N2[C@H]1C(=O)O` [AMPICILLIN], the MIC in assay [1] and in assay [2] was over 128 µg/mL each time.

Consider `CC1(C)S[C@@H]2[C@H](NC(=O)[C@H](N)c3ccc(O)cc3)C(=O)N2[C@H]1C(=O)O` [AMOXICILLIN], for which the results for the MIC in assay [1], in assay [2] and in assay [3] were over 128 µg/mL, over 128 µg/mL and 16 µg/mL (≈ 43.8 µM), respectively.

Consider `C[C@@H](O)[C@H]1C(=O)N2C(C(=O)O)=C(S[C@@H]3CN[C@H](C(=O)Nc4cccc(C(=O)O)c4)C3)[C@H](C)[C@H]12` [ERTAPENEM], for which the MIC in assay [1] and in assay [2] was at most 0.06 µg/mL throughout.

As for `CC(C)(O/N=C(\C(=O)N[C@@H]1C(=O)N2C(C(=O)[O-])=C(C[n+]3ccccc3)CS[C@H]12)c1csc(N)n1)C(=O)O` [CEFTAZIDIME], the minimum inhibitory concentration (MIC) in assay [1] was 32 µg/mL (≈ 58.5 µM); in assay [2], 128 µg/mL (≈ 234 µM); in assay [3], 0.12 µg/mL (≈ 0.22 µM).

With `CO/N=C(\C(=O)N[C@@H]1C(=O)N2C(C(=O)[O-])=C(C[N+]3(C)CCCC3)CS[C@H]12)c1csc(N)n1` [CEFEPIME], the MIC was 0.5 µg/mL (≈ 1.04 µM) in assay [1], 1 µg/mL (≈ 2.08 µM) in assay [2] and at most 0.06 µg/mL in assay [3].

Turning to `C[C@@H](O)[C@H]1C(=O)N2C(C(=O)O)=C(SCCNC=N)C[C@H]12` [IMIPENEM ANHYDROUS], the MIC in assay [1] and in assay [2] was at most 0.06 µg/mL in each case.

Consider `C[C@H]1[C@H](NC(=O)/C(=N\OC(C)(C)C(=O)O)c2csc(N)n2)C(=O)N1S(=O)(=O)O` [AZTREONAM], for which the values for the MIC in assay [1], in assay [2] and in assay [3] were over 128 µg/mL, over 128 µg/mL and 0.12 µg/mL (≈ 0.276 µM), respectively.

In the case of `CO/N=C(\C(=O)N[C@@H]1C(=O)N2C(C(=O)O)=C(COC(C)=O)CS[C@H]12)c1csc(N)n1` [CEFOTAXIME], the MIC was 4 µg/mL (≈ 8.78 µM) in assay [1], 8 µg/mL (≈ 17.6 µM) in assay [2] and at most 0.06 µg/mL in assay [3].

Take `CCN1CCN(C(=O)N[C@@H](C(=O)N[C@@H]2C(=O)N3[C@@H]2SC(C)(C)[C@@H]3C(=O)O)c2ccccc2)C(=O)C1=O` [PIPERACILLIN]: the MIC in assay [1] is 64 µg/mL (≈ 124 µM); in assay [2], over 128 µg/mL; in assay [3], 1 µg/mL (≈ 1.93 µM).

Broadly, the MIC is the smallest concentration in the dilution series that meets the test's criterion for growth inhibition. Read a high MIC as weaker potency.
